From patent US20120053168A1, “FUSED BENZOAZEPINES AS NEURONAL NICOTINIC ACETYLCHOLINE RECEPTOR LIGANDS” (Targacept, Inc., priority 2009, published 2012) come the findings set out here.

As a reminder, the EC50 is the concentration that produces a half-maximal response. A low value points to a more potent agent. Broadly, the Emax is the greatest response seen or fitted, relative to the assay's reference. By Ki is commonly meant the dissociation constant of the complex between target and ligand, obtained from inhibition or displacement. Higher therefore signals a looser hold on the target.

In test [1] the target is T1, human ganglionic nAChR subtype (Homo sapiens, UniProt P30926+P32297).
T1 construct: endogenous in cells; host or cells: SH-SY5Y human neuroblastoma cells
Kind of test: 86Rb+ efflux in SH-SY5Y cells (human ganglionic nAChR subtype). The test is classed as cell-based. From the text: Example 8: Interaction at the Human Ganglionic nAChR Subtype
The cell line SH-SY5Y is a continuous line derived by sequential subcloning of the parental cell line, SK-N-SH, which was originally obtained from a human peripheral neuroblastoma. SH-SY5Y cells express a ganglion-like nAChR (Lukas et al., Mol. Cell. Neurosci. 4: 1 (1993)).
Human SH-SY5Y cells were maintained in proliferative growth phase according to routine protocols (Bencherif et al., Mol. Cell. Neurosci. 2: 52 (1991) and Bencherif et al., J. Pharmacol. Exp. Ther. 257: 946 (1991)). Cells were cultured in Dulbecco's modified Eagle's medium (Gibco/BRL) with 10% horse serum (Gibco/BRL), 5% fetal bovine serum (HyClone, Logan Utah), 1 mM sodium pyruvate, 4 mM L-Glutamine, and 50,000 units penicillin-streptomycin (Irvine Scientific). When cells were 80% confluent, they were plated to 12 well polystyrene plates (Costar). […]
Nicotinic acetylcholine receptor (nAChR) function was assayed using ^86Rb^+efflux according to a method described by Lukas et al., Anal. Biochem. 175: 212 (1988). […] Scintillation fluid was added and released radioactivity was measured by liquid scintillation counting. […]
When appropriate, dose-response curves of test compound were determined. The maximal activation for individual compounds (Emax) was determined as a percentage of the maximal activation induced by L-nicotine. […]

Another test deals with T2, Human α4β2 nAChR subtype (Homo sapiens, UniProt P17787+P43681).
T2 construct: expressed in transfected cells; host or cells: SH-EP1 clonal cells
Kind of test: [3H]nicotine radioligand binding, membranes from SH-EP1/human α4β2 clonal cells. As for the experimental part: Preparation of membranes from SH-EP1/human α4β2 clonal cells:
Cell pellets from 40 150 mm culture dishes were pooled, and homogenized by Polytron (Kinematica GmbH, Switzerland) in 20 milliliters of ice-cold preparative buffer. The homogenate was centrifuged at 48,000 g for 20 minutes at 4° C. The resulting pellet was re-suspended in 20 mL of ice-cold preparative buffer and stored at ˜20° C.
On the day of the assay, the frozen membranes were thawed and spun at 48,000×g for 20 min. The supernatant was decanted and discarded. The pellet was resuspended in Dulbecco's phosphate buffered saline (PBS, Life Technologies) pH 7.4 and homogenized with the Polytron for 6 seconds. Protein concentrations were determined using a Pierce BCA Protein Assay Kit, with bovine serum albumin as the standard (Pierce Chemical Company, Rockford, Ill.).
Assay: Membrane preparations (approximately 50 μg for human and 200-300 μg protein for rat α4β2) were incubated in PBS (50 μL and 100 μL respectively) in the presence of competitor compound (0.01 nM to 100 μM) and 5 nM [^3H]nicotine for 2-3 hours on ice. Incubation was terminated by rapid filtration on a multi-manifold tissue harvester (Brandel, Gaithersburg, Md.) using GF/B filters presoaked in 0.33% polyethyleneimine (w/v) to reduce non-specific binding. Tissue was rinsed 3 times in PBS, pH 7.4. Scintillation fluid was added to filters containing the washed tissue and allowed to equilibrate. Filters were then counted to determine radioactivity bound to the membranes by liquid scintillation counting (2200CA Tri-Carb LSC, Packard Instruments, 50% efficiency or Wallac Trilux 1450 MicroBeta, 40% efficiency, Perkin Elmer).
Data were expressed as disintegrations per minute (DPMs). Within each assay, each point had 2-3 replicates. The replicates for each point were averaged and plotted against the log of the drug concentration. IC50, which is the concentration of the compound that produces 50% inhibition of binding, was determined by least squares non-linear regression. Ki values were calculated using the Cheng-Prussof equation (1973): […]
where N is the concentration of [^3H]nicotine and Kd is the affinity of nicotine (3 nM, determined in a separate experiment).

T1 sequence (P32297 32-505): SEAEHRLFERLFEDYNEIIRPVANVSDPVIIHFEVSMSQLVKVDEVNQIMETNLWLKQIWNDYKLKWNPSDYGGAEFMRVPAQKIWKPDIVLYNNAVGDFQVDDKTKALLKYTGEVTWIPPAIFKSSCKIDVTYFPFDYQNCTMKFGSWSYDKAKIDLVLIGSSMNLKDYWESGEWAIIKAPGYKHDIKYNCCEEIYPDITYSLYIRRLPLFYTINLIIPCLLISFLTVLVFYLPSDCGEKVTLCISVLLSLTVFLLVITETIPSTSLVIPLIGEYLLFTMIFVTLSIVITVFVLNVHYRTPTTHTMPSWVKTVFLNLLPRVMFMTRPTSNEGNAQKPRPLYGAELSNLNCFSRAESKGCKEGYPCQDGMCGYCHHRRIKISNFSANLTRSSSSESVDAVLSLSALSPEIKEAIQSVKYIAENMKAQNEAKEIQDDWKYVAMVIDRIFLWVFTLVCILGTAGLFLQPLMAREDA
T1 sequence (P30926 22-498): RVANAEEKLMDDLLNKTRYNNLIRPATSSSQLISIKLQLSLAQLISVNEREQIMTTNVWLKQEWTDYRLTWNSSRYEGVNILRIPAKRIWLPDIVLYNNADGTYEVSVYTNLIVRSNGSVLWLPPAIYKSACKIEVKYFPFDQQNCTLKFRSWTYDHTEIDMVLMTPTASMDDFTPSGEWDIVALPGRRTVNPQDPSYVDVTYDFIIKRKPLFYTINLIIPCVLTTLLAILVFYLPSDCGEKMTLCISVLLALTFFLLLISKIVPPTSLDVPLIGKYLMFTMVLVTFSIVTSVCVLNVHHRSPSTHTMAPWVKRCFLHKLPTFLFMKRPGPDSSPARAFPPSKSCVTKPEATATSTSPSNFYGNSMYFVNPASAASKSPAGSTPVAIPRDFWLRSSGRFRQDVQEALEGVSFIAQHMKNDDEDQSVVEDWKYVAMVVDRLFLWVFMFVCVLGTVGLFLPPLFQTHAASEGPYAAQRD
T2 sequence (P43681 29-627 limits assumed): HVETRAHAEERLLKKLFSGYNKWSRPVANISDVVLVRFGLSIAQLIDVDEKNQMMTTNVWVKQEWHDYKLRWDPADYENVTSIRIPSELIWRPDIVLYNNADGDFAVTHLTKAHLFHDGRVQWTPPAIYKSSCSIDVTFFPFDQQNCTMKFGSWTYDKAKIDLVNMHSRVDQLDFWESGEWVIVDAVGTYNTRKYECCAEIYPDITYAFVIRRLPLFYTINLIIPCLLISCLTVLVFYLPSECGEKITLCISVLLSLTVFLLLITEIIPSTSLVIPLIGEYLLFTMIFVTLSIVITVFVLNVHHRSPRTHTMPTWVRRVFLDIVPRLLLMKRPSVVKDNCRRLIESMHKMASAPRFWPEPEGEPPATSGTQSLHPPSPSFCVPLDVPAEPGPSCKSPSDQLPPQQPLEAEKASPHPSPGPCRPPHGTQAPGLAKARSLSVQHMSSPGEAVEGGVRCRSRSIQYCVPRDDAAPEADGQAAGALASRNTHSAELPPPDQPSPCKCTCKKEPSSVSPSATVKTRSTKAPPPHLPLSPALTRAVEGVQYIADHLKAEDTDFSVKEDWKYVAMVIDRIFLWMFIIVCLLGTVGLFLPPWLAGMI
T2 sequence (P17787 26-502): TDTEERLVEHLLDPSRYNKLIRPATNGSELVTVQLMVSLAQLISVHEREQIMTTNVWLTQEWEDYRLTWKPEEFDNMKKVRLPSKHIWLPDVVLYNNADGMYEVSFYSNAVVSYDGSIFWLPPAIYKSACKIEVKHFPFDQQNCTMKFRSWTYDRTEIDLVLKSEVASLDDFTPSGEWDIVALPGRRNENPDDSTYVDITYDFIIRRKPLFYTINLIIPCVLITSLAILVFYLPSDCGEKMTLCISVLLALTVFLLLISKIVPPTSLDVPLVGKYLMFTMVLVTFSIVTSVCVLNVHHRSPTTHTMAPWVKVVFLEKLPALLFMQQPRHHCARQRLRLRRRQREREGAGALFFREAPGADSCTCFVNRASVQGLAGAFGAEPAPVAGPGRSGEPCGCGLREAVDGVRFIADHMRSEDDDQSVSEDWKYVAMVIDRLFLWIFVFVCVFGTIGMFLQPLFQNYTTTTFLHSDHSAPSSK

In test [1] (86Rb+ efflux), `c1cnc2cc3c(cc2n1)CCNCC3` [Compound A, 7,8,9,10-tetrahydro-6H-azepino[4,5-g]quinoxaline] had an EC50 of 4.4 µM. Further, the Emax in test [1] (percentage of maximal activation induced by L-nicotine) amounted to 21%. This molecule also registered a Ki at Human α4β2 nAChR subtype of 0.01 µM.
